By IC50 is commonly meant the concentration at which inhibition is half-maximal.

The text below walks through data of patent US5849736A, “Isoxazoline and isoxazole fibrinogen receptor antagonists” (The DuPont Merck Pharmaceutical Company, priority 1995, dated 1998).

Structures can show the parent of a compound that is named as a salt. Some results are limits rather than exact numbers.

One experiment relates to platelet aggregation in human platelet rich plasma (PRP). As to the kind of experiment: Platelet Aggregation Assay (platelet rich plasma, with or without esterase pretreatment). To be noted: Platelet, preincubated with 100 IU/mL porcine liver esterase 2 hours at 37° C., 100 μM ADP, read-out: Platelet Aggregation Assay IC50 (with esterase). It counts as cell-based. The method in brief: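 Human citrated PRP from drug-free donors, PPP as 100% transmittance blank; compounds added at various concentrations before agonist (ADP, collagen, arachidonate, epinephrine or thrombin), aggregation followed by light transmittance. Ester prodrugs pretreated (10^-3 M F.C.) with 100 IU/mL porcine liver esterase, 2 h 37 °C; 8 min 37 °C preincubation, then 100 μM ADP, 5 min; % inhibition vs control, IC50.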
On to `N=C(N)NCCCCC1CC(C(=O)NCC(NC(=O)OCc2ccccc2)C(=O)O)=NO1` (stereo not shown) [Example 1321], for which the half-maximal inhibitory concentration (IC50) was below 10 µM.

Turning to `CCCc1ccc(S(=O)(=O)NC(CNC(=O)CC2CC(c3ccc(C(=N)N)cc3)=NO2)C(=O)OC)cc1` (stereo not shown) [Example 489], the half-inhibitory concentration (IC50) is below 10 µM.

For the compound `COC(=O)C(CNC(=O)CC1CC(c2ccc(C(=N)N)cc2)=NO1)NS(=O)(=O)c1cccc(Cl)c1` (stereo not shown) [Example 476], the IC50 was below 10 µM.

On to `CCCCCCOC(=O)NC(CNC(=O)CC1CC(c2ccc(C(=N)N)cc2)=NO1)C(=O)OC` (stereo not shown) [Example 529], for which the half-inhibitory concentration (IC50) was below 10 µM.

For the compound `N=C(N)c1ccc(C2=NOC(CC(=O)NCC(NS(=O)(=O)c3ccc(S(=O)(=O)c4ccccc4)s3)C(=O)O)C2)cc1` (stereo not shown) [Example 2119], the IC50 was below 10 µM.

As to `COC(=O)C(CNC(=O)CC1CC(c2ccc(C(=N)N)cc2)=NO1)NS(=O)(=O)c1c(C)nn(C)c1Cl` (stereo not shown) [Example 547], the concentration for half-maximal inhibition (IC50) is below 10 µM.

Take `CCCCS(=O)(=O)NCC(CC(=O)OC)NC(=O)CC1CC(c2ccc(C(=N)N)cc2)=NO1` (racemic) [Example 362, Methyl 3(R,S)-{5(R,S)-N-[3-(4-amidinophenyl)isoxazolin-5-ylacetyl]amino}-4-(n-butylsulfonamido)butanoate . trifluoroacetic acid salt]: the 50% inhibitory concentration (IC50) is below 10 µM.

Regarding `COC(=O)C(CNC(=O)CC1CC(c2ccc(C(=N)N)cc2)=NO1)NS(=O)(=O)c1ccc(-c2ccon2)s1` (stereo not shown) [Example 551], the concentration for half-maximal inhibition (IC50) is below 10 µM.

For `CCC(CC(=O)OC)NC(=O)CC1CC(c2ccc(C(=N)N)cc2)=NO1` (stereo not shown) [Example 115], the IC50 is below 10 µM.

For the compound `COC(=O)C(CNC(=O)CC1CC(c2ccc(C(=N)N)cc2)=NO1)NS(=O)(=O)c1ccc(C#N)cc1` (stereo not shown) [Example 486], the IC50 is below 10 µM.

For the compound `COC(=O)C(CNC(=O)CC1CC(c2ccc(C(=N)N)cc2)=NO1)NS(=O)(=O)c1ccc(Br)s1` (stereo not shown) [Example 549], the 50% inhibitory concentration (IC50) was below 10 µM.

Take `COC(=O)C(CNC(=O)CC1CC(c2ccc(C(=N)N)cc2)=NO1)NS(=O)(=O)c1ccc(Br)cc1` (stereo not shown) [Example 545]: the IC50 is below 10 µM.

`COC(=O)CC(NC(=O)CC1CC(c2ccc(C(=N)N)cc2)=NO1)C(=O)N(C)CCc1ccccc1` (stereo not shown) [Example 454]: the IC50 was below 10 µM.

On to `COC(=O)C(CNC(=O)CC1CC(c2ccc(C(=N)N)cc2)=NO1)NS(=O)(=O)NC(C)(C)C` (stereo not shown) [Example 506], for which the IC50 was below 10 µM.

As for `COC(=O)C(CNC(=O)CC1CC(c2ccc(C(=N)NCc3ccccc3OC)cc2)=NO1)NS(=O)(=O)c1ccccc1C` (stereo not shown) [Example 2111], the IC50 is below 10 µM.

As for `COC(=O)CC1CCCCN1C(=O)CC1CC(c2ccc(C(=N)N)cc2)=NO1` (stereo not shown) [Example 394], the IC50 is below 10 µM.

Consider `COC(=O)CC(NC(=O)CC1CC(c2ccc(C(=N)N)cc2)=NO1)C(=O)N1CCc2ccccc2C1` (stereo not shown) [Example 465], for which the IC50 is below 10 µM.

For `COC(=O)C(CNC(=O)CC1CC(c2ccc(C(=N)N)cc2)=NO1)NS(=O)(=O)c1cccc(Br)c1` (stereo not shown) [Example 544], the IC50 was below 10 µM.

`COC(=O)C(CNC(=O)CC1CC(c2ccc(C(=N)N)cc2)=NO1)NS(=O)(=O)c1ccccn1` (stereo not shown) [Example 495]: the IC50 is below 10 µM.

As to `COC(=O)CC(NC(=O)CC1CC(c2ccc(C(=N)N)cc2)=NO1)C(=O)NC1C2CC3CC(C2)CC1C3` (stereo not shown) [Example 467], the IC50 is below 10 µM.

As to `COC(=O)C(CNC(=O)CC1CC(c2ccc(C(=N)N)cc2)=NO1)NC(=O)c1ccc(-c2ccccc2)cc1` (stereo not shown) [Example 523], the IC50 was below 10 µM.

Regarding `N=C(N)NCCCCC1=NOC(CC(=O)NCC(NC(=O)OCc2ccccc2)C(=O)O)C1` (stereo not shown) [Example 1731], the IC50 was below 10 µM.

Consider `COC(=O)CC(CNS(=O)(=O)N(C)C)NC(=O)CC1CC(c2ccc(C(=N)N)cc2)=NO1` (stereo not shown) [Example 611], for which the IC50 was below 10 µM.

For the compound `COC(=O)C(CNC(=O)CC1CC(c2ccc(C(=N)N)cc2)=NO1)NS(=O)(=O)c1ccc(I)cc1` (stereo not shown) [Example 474], the IC50 was below 10 µM.

Regarding `COC(=O)C(CNC(=O)CC1CC(c2ccc(C(=N)N)cc2)=NO1)NS(=O)(=O)c1ccccc1Cl` (stereo not shown) [Example 479], the IC50 was below 10 µM.

As for `COC(=O)C(CNC(=O)CC1CC(c2ccc(C(=N)N)cc2)=NO1)NS(=O)(=O)c1ccc(OC)cc1` (stereo not shown) [Example 484], the IC50 is below 10 µM.

Consider `CCS(=O)(=O)NC(CNC(=O)CC1CC(c2ccc(C(=N)N)cc2)=NO1)C(=O)OC` (stereo not shown) [Example 324], for which the IC50 was below 10 µM.

Take `COC(=O)C(CNC(=O)CC1CC(c2ccc(C(=N)N)cc2)=NO1)NS(=O)(=O)c1ccc(-c2ccccn2)s1` (stereo not shown) [Example 552]: the IC50 is below 10 µM.

With `COC(=O)C(CNC(=O)CC1CC(c2ccc(C(=N)N)cc2)=NO1)NC(=O)OCCCC(F)(F)F` (stereo not shown) [Example 537], the half-maximal inhibitory concentration (IC50) is below 10 µM.

For `N=C(N)NCCC1CC(C(=O)NCC(NC(=O)OCc2ccccc2)C(=O)O)=NO1` (stereo not shown) [Example 1525], the IC50 is below 10 µM.

With `N=C(N)NCCCC1=NOC(CCC(=O)NCC(NC(=O)OCc2ccccc2)C(=O)O)C1` (stereo not shown) [Example 2403], the half-inhibitory concentration (IC50) was below 10 µM.

`COC(=O)[C@H](CN(C)C(=O)CC1CC(c2ccc(C(=N)N)cc2)=NO1)NC(=O)OCc1ccccc1` (stereo partly drawn) [Example 651, Methyl N^2-benzyloxycarbonyl-N^3-methyl-N^3-[3-(4-amidinophenyl)isoxazolin-5-(R,S)-ylacetyl]-(S)-2,3-diaminopropionate, trifluoroacetic acid salt]: the IC50 was below 10 µM.

As to `COC(=O)CC(NC(=O)CC1CC(c2ccc(C(=N)N)cc2)=NO1)C(=O)N1CCCc2ccccc21` (stereo not shown) [Example 464], the IC50 is below 10 µM.

`CCCCC(CC(=O)OCC)NC(=O)CC1CC(c2ccc(C(=N)N)cc2)=NO1` (stereo not shown) [Example 345]: the IC50 is below 10 µM.

With `COC(=O)CC(CCCc1ccccc1)NC(=O)CC1CC(c2ccc(C(=N)N)cc2)=NO1` (stereo not shown) [Example 446], the IC50 is below 10 µM.

With `COC(=O)C(CNC(=O)CC1CC(c2ccc(C(=N)N)cc2)=NO1)NC(=O)OCc1ccccc1Cl` (stereo not shown) [Example 525], the IC50 was below 10 µM.

With `N=C(N)NCCC1=NOC(CC(=O)NCC(NC(=O)OCc2ccccc2)C(=O)O)C1` (stereo not shown) [Example 2109], the half-inhibitory concentration (IC50) was below 10 µM.

For the compound `COC(=O)C(CNC(=O)CC1CC(c2ccc(C(=N)N)cc2)=NO1)NS(C)(=O)=O` (stereo not shown) [Example 323], the concentration for half-maximal inhibition (IC50) is below 10 µM.

Turning to `CCCCOC(=O)NC(CNC(=O)CC1CC(CCC2CCNCC2)=NO1)C(=O)OC` (stereo not shown) [Example 451], the IC50 is below 10 µM.

As for `COC(=O)CC(NC(=O)CC1CC(c2ccc(C(=N)N)cc2)=NO1)C(=O)NC12CC3CC(CC(C3)C1)C2` (stereo not shown) [Example 466], the IC50 was below 10 µM.

Regarding `Cc1ccccc1C(=O)N[C@@H](CNC(=O)CC1CC(c2ccc(C(=N)N)cc2)=NO1)C(=O)O` (stereo partly drawn) [Example 540, N^2-methylphenylcarbonyl-N^3-[3-(4-amidinophenyl)isoxazolin-5-(R,S)-ylacetyl]-(S)-2,3-diaminopropionicacid], the IC50 is below 10 µM.

Consider `COC(=O)C(CNC(=O)CC1CC(c2ccc(C(=N)N)cc2)=NO1)NC(=O)OCc1ccccc1Br` (stereo not shown) [Example 527], for which the half-maximal inhibitory concentration (IC50) was below 10 µM.

As for `COC(=O)[C@H](CNC(=O)CC1CC(c2ccc(C(=N)N)cc2)=NO1)NS(=O)(=O)N(C)C` (stereo partly drawn) [Example 511, Methyl N^2-(N,N-dimethylsulfamoyl)-N^3-[3-(4-amidinophenyl)isoxazolin-5-(R,S)-ylacetyl]-(S)-2,3-diaminopropionate, trifluoroacetic acid salt], the IC50 was below 10 µM.

With `CCNC(=N)c1ccc(C2=NOC(CC(=O)NCC(NS(=O)(=O)c3ccccc3C)C(=O)O)C2)cc1` (stereo not shown) [Example 2116], the IC50 was below 10 µM.

In the case of `COC(=O)C(CNC(=O)CC1CC(c2ccc(C(=N)N)cc2)=NO1)NS(=O)(=O)c1ccc(-c2cc(C(F)(F)F)n(C)n2)s1` (stereo not shown) [Example 550], the IC50 is below 10 µM.

On to `COC(=O)CC(NC(=O)CC1CC(c2ccc(C(N)=NC(=O)OC(C)(C)C)cc2)=NO1)C(=O)N1CCN(Cc2ccccc2)CC1` (stereo not shown) [Example 453], for which the IC50 was below 10 µM.

In the case of `COC(=O)CC(NC(=O)CC1CC(c2ccc(C(=N)N)cc2)=NO1)C(=O)N1CCSCC1` (stereo not shown) [Example 468], the IC50 is below 10 µM.

Take `CCCS(=O)(=O)NC(CNC(=O)CC1CC(c2ccc(C(=N)N)cc2)=NO1)C(=O)OC` (stereo not shown) [Example 490]: the IC50 was below 10 µM.

The experiment is the same for the next values; noted with them: Platelet, without esterase, given as a bound, not a class symbol, read-out: Platelet Aggregation Assay IC50 (without esterase).
Turning to `O=C(O)CC1CC(c2ccc(OCC3CCNCC3)cc2)=NO1` (racemic) [Example 7, 3-[4-(Piperidin-4-ylmethoxy)phenyl]-(5R,S)-isoxazolin-5-ylacetic Acid, Trifluoroacetic Acid Salt], the IC50 was above 100 µM.

The experiment is the same for the next values; noted with them: Platelet, without esterase, read-out: Platelet Aggregation Assay IC50 (without esterase).
Turning to `O=C(N[C@H](C(=O)O)C1CC(c2ccc(OCCC3CCNCC3)cc2)=NO1)OCc1ccccc1` (single isomer, unassigned) [4 (isomer B), Trifluoroacetic Acid Salt], the IC50 lay within 10 to 50 µM.

Turning to `CC(C)COC(=O)NC(CNC(=O)CC1CC(c2ccc(C(=N)N)cc2)=NO1)C(=O)O` (stereo not shown) [Example 532], the IC50 was below 10 µM.

Consider `N=C(N)c1ccc(C2=NOC(CC(=O)N3CCCCCC3CC(=O)O)C2)cc1` (racemic) [Example 377, 2-(R,S)-2-Carboxymethyl-1-{5-(R,S)-N-[3-(4-amidinophenyl)isoxazolin-5-ylacetyl]}azepine], for which the IC50 is below 10 µM.

As for `O=C(O)CCC1CC(c2ccc(OCCC3CCNCC3)cc2)=NO1` (racemic) [Example 8, 3-[4-(2-Piperidin-4-yl)ethoxyphenyl]-(5R,S) -isoxazolin-5-ylpropionic Acid, Trifluoroacetic Acid Salt], the IC50 was 50 to 100 µM.

Staying with this experiment, now noted: preincubated with 100 IU/mL porcine liver esterase 2 hours at 37° C., 100 μM ADP, read-out: Platelet Aggregation Assay IC50 (with esterase).
As for `COC(=O)C[C@H](Cc1ccccc1)NC(=O)CC1CC(c2ccc(C(=N)N)cc2)=NO1` (stereo partly drawn) [119B (3S)], the IC50 was below 10 µM.

Turning to `COC(=O)[C@H](CNC(=O)CC1CC(c2ccc(C(=N)N)cc2)=NO1)NS(=O)(=O)Cc1ccccc1` (stereo partly drawn) [328 (2S)], the IC50 is below 10 µM.
